According to ChEMBL document CHEMBL5724914, “Linking interpersonal differences in gut microbiota composition and drug biotransformation activity” (2024):

Columns and labels:
[1] = (§1) The drug is tested on Z-001 corresponding to mouse gut metagenome with ENA study accession number: PRJEB37062 and ENA sample accession number: ERS12561801 for biotransformation under anaerobic condition. The drug concentrations were measured over 9 timepoints collected between 0 and 24 hours of incubation by liquid-chromatography-coupled mass spectrometry (LC–MS); details: 2 µM
[2] = as §1, with “WLS-007” for “Z-001”, “human” for “mouse”, “ERS12561742” for “ERS12561801”; details: 2 µM
[3] = human gut metagenome, 24 h, 2 µM
[4] = as §1, with “WLS-052” for “Z-001”, “human” for “mouse”, “ERS12561747” for “ERS12561801”; details: 2 µM
[5] = as §1, with “WLS-073” for “Z-001”, “human” for “mouse”, “ERS12561749” for “ERS12561801”; details: 2 µM
[6] = human gut metagenome, 24 h, 2 µM; remark: listed apart in the source
[7] = human gut metagenome, 24 h, 2 µM; remark: listed apart in the source
[8] = human gut metagenome, 24 h, 2 µM; remark: listed apart in the source
[9] = human gut metagenome, 24 h, 2 µM; remark: listed apart in the source
[10] = as §1, with “Z-024” for “Z-001”, “pig” for “mouse”, “ERS12561823” for “ERS12561801”; details: 2 µM
[11] = human gut metagenome, 24 h, 2 µM; remark: listed apart in the source
[12] = human gut metagenome, 24 h, 2 µM; remark: listed apart in the source
[13] = as §1, with “Z-011” for “Z-001”, “ERS12561811” for “ERS12561801”; details: 2 µM
[14] = as §1, with “WLS-006” for “Z-001”, “human” for “mouse”, “ERS12561741” for “ERS12561801”; details: 2 µM
[15] = as §1, with “Z-014” for “Z-001”, “rat” for “mouse”, “ERS12561814” for “ERS12561801”; details: 2 µM
[16] = as §1, with “Z-017” for “Z-001”, “ERS12561816” for “ERS12561801”; details: 2 µM
[17] = as §1, with “Z-002” for “Z-001”, “rabbit” for “mouse”, “ERS12561802” for “ERS12561801”; details: 2 µM
[18] = as §1, with “WLS-027” for “Z-001”, “human” for “mouse”, “ERS12561744” for “ERS12561801”; details: 2 µM
[19] = as §1, with “WLS-220” for “Z-001”, “human” for “mouse”, “ERS12561769” for “ERS12561801”; details: 2 µM
[20] = as §1, with “Z-007” for “Z-001”, “rat” for “mouse”, “ERS12561807” for “ERS12561801”; details: 2 µM
Further: call rule not given here.

## CCN(CC)CCNC(=O)c1ccc(NC(C)=O)cc1 [ACECAINIDE]
[1]
  Bacterial Biotransformation: Compound NOT metabolized
[2]
  Bacterial Biotransformation: Compound NOT metabolized
[3]
  Bacterial Biotransformation: Compound metabolized
[4]
  Bacterial Biotransformation: Compound NOT metabolized
[5]
  Bacterial Biotransformation: Compound NOT metabolized
[6]
  Bacterial Biotransformation: Compound NOT metabolized
[7]
  Bacterial Biotransformation: Compound metabolized
[8]
  Bacterial Biotransformation: Compound NOT metabolized
[9]
  Bacterial Biotransformation: Compound NOT metabolized
[10]
  Bacterial Biotransformation: Compound NOT metabolized
[11]
  Bacterial Biotransformation: Compound NOT metabolized
[12]
  Bacterial Biotransformation: Compound NOT metabolized
[13]
  Bacterial Biotransformation: Compound NOT metabolized
[14]
  Bacterial Biotransformation: Compound NOT metabolized
[15]
  Bacterial Biotransformation: Compound NOT metabolized
[16]
  Bacterial Biotransformation: Compound NOT metabolized
[17]
  Bacterial Biotransformation: Compound metabolized
[18]
  Bacterial Biotransformation: Compound NOT metabolized
[19]
  Bacterial Biotransformation: Compound NOT metabolized
[20]
  Bacterial Biotransformation: Compound NOT metabolized

## O=C1CN2Cc3c(ccc(Cl)c3Cl)N=C2N1 [ANAGRELIDE]
[1]
  Bacterial Biotransformation: Compound NOT metabolized
[2]
  Bacterial Biotransformation: Compound metabolized
[3]
  Bacterial Biotransformation: Compound metabolized
[4]
  Bacterial Biotransformation: Compound metabolized
[5]
  Bacterial Biotransformation: Compound NOT metabolized
[6]
  Bacterial Biotransformation: Compound NOT metabolized
[7]
  Bacterial Biotransformation: Compound metabolized
[8]
  Bacterial Biotransformation: Compound NOT metabolized
[9]
  Bacterial Biotransformation: Compound metabolized
[10]
  Bacterial Biotransformation: Compound metabolized
[11]
  Bacterial Biotransformation: Compound NOT metabolized
[12]
  Bacterial Biotransformation: Compound NOT metabolized
[13]
  Bacterial Biotransformation: Compound NOT metabolized
[14]
  Bacterial Biotransformation: Compound metabolized
[15]
  Bacterial Biotransformation: Compound NOT metabolized
[16]
  Bacterial Biotransformation: Compound NOT metabolized
[17]
  Bacterial Biotransformation: Compound NOT metabolized
[18]
  Bacterial Biotransformation: Compound NOT metabolized
[19]
  Bacterial Biotransformation: Compound metabolized
[20]
  Bacterial Biotransformation: Compound NOT metabolized

## CN(C)C(=O)Oc1cc(OC(=O)N(C)C)cc(C(O)CNC(C)(C)C)c1 (stereo not given) [BAMBUTEROL]
[1]
  Bacterial Biotransformation: Compound metabolized
[2]
  Bacterial Biotransformation: Compound metabolized
[3]
  Bacterial Biotransformation: Compound metabolized
[4]
  Bacterial Biotransformation: Compound NOT metabolized
[5]
  Bacterial Biotransformation: Compound NOT metabolized
[6]
  Bacterial Biotransformation: Compound NOT metabolized
[7]
  Bacterial Biotransformation: Compound metabolized
[8]
  Bacterial Biotransformation: Compound metabolized
[9]
  Bacterial Biotransformation: Compound NOT metabolized
[10]
  Bacterial Biotransformation: Compound NOT metabolized
[11]
  Bacterial Biotransformation: Compound NOT metabolized
[12]
  Bacterial Biotransformation: Compound metabolized
[13]
  Bacterial Biotransformation: Compound NOT metabolized
[14]
  Bacterial Biotransformation: Compound metabolized
[15]
  Bacterial Biotransformation: Compound NOT metabolized
[16]
  Bacterial Biotransformation: Compound NOT metabolized
[17]
  Bacterial Biotransformation: Compound metabolized
[18]
  Bacterial Biotransformation: Compound NOT metabolized
[19]
  Bacterial Biotransformation: Compound metabolized
[20]
  Bacterial Biotransformation: Compound NOT metabolized

## CC(C)C[C@H]1C(=O)N2CCC[C@H]2[C@]2(O)O[C@](NC(=O)[C@@H]3C=C4c5cccc6[nH]c(Br)c(c56)C[C@H]4N(C)C3)(C(C)C)C(=O)N12.CS(=O)(=O)O [BROMOCRIPTINE MESYLATE]
[1]
  Bacterial Biotransformation: Compound metabolized
[2]
  Bacterial Biotransformation: Compound metabolized
[3]
  Bacterial Biotransformation: Compound metabolized
[4]
  Bacterial Biotransformation: Compound metabolized
[5]
  Bacterial Biotransformation: Compound metabolized
[6]
  Bacterial Biotransformation: Compound metabolized
[7]
  Bacterial Biotransformation: Compound metabolized
[8]
  Bacterial Biotransformation: Compound metabolized
[9]
  Bacterial Biotransformation: Compound metabolized
[10]
  Bacterial Biotransformation: Compound metabolized
[11]
  Bacterial Biotransformation: Compound NOT metabolized
[12]
  Bacterial Biotransformation: Compound metabolized
[13]
  Bacterial Biotransformation: Compound metabolized
[14]
  Bacterial Biotransformation: Compound metabolized
[15]
  Bacterial Biotransformation: Compound metabolized
[16]
  Bacterial Biotransformation: Compound metabolized
[17]
  Bacterial Biotransformation: Compound metabolized
[18]
  Bacterial Biotransformation: Compound metabolized
[19]
  Bacterial Biotransformation: Compound metabolized
[20]
  Bacterial Biotransformation: Compound metabolized

## CC(NC(C)(C)C)C(=O)c1cccc(Cl)c1 (stereo not given) [BUPROPION]
[1]
  Bacterial Biotransformation: Compound NOT metabolized
[2]
  Bacterial Biotransformation: Compound NOT metabolized
[3]
  Bacterial Biotransformation: Compound NOT metabolized
[4]
  Bacterial Biotransformation: Compound NOT metabolized
[5]
  Bacterial Biotransformation: Compound NOT metabolized
[6]
  Bacterial Biotransformation: Compound NOT metabolized
[7]
  Bacterial Biotransformation: Compound NOT metabolized
[8]
  Bacterial Biotransformation: Compound NOT metabolized
[9]
  Bacterial Biotransformation: Compound NOT metabolized
[10]
  Bacterial Biotransformation: Compound NOT metabolized
[11]
  Bacterial Biotransformation: Compound NOT metabolized
[12]
  Bacterial Biotransformation: Compound NOT metabolized
[13]
  Bacterial Biotransformation: Compound NOT metabolized
[14]
  Bacterial Biotransformation: Compound metabolized
[15]
  Bacterial Biotransformation: Compound NOT metabolized
[16]
  Bacterial Biotransformation: Compound NOT metabolized
[17]
  Bacterial Biotransformation: Compound NOT metabolized
[18]
  Bacterial Biotransformation: Compound NOT metabolized
[19]
  Bacterial Biotransformation: Compound NOT metabolized
[20]
  Bacterial Biotransformation: Compound NOT metabolized

## O=C1CC2(CCCC2)CC(=O)N1CCCCN1CCN(c2ncccn2)CC1 [BUSPIRONE]
[1]
  Bacterial Biotransformation: Compound NOT metabolized
[2]
  Bacterial Biotransformation: Compound NOT metabolized
[3]
  Bacterial Biotransformation: Compound metabolized
[4]
  Bacterial Biotransformation: Compound NOT metabolized
[5]
  Bacterial Biotransformation: Compound NOT metabolized
[6]
  Bacterial Biotransformation: Compound NOT metabolized
[7]
  Bacterial Biotransformation: Compound metabolized
[8]
  Bacterial Biotransformation: Compound NOT metabolized
[9]
  Bacterial Biotransformation: Compound metabolized
[10]
  Bacterial Biotransformation: Compound NOT metabolized
[11]
  Bacterial Biotransformation: Compound NOT metabolized
[12]
  Bacterial Biotransformation: Compound NOT metabolized
[13]
  Bacterial Biotransformation: Compound NOT metabolized
[14]
  Bacterial Biotransformation: Compound NOT metabolized
[15]
  Bacterial Biotransformation: Compound NOT metabolized
[16]
  Bacterial Biotransformation: Compound NOT metabolized
[17]
  Bacterial Biotransformation: Compound metabolized
[18]
  Bacterial Biotransformation: Compound NOT metabolized
[19]
  Bacterial Biotransformation: Compound NOT metabolized
[20]
  Bacterial Biotransformation: Compound NOT metabolized

## CCCC(C)(COC(N)=O)COC(=O)NC(C)C (stereo not given) [CARISOPRODOL]
[1]
  Bacterial Biotransformation: Compound metabolized
[2]
  Bacterial Biotransformation: Compound metabolized
[3]
  Bacterial Biotransformation: Compound NOT metabolized
[4]
  Bacterial Biotransformation: Compound metabolized
[5]
  Bacterial Biotransformation: Compound metabolized
[6]
  Bacterial Biotransformation: Compound metabolized
[7]
  Bacterial Biotransformation: Compound NOT metabolized
[8]
  Bacterial Biotransformation: Compound metabolized
[9]
  Bacterial Biotransformation: Compound metabolized
[10]
  Bacterial Biotransformation: Compound metabolized
[11]
  Bacterial Biotransformation: Compound metabolized
[12]
  Bacterial Biotransformation: Compound metabolized
[13]
  Bacterial Biotransformation: Compound metabolized
[14]
  Bacterial Biotransformation: Compound metabolized
[15]
  Bacterial Biotransformation: Compound metabolized
[16]
  Bacterial Biotransformation: Compound NOT metabolized
[17]
  Bacterial Biotransformation: Compound metabolized
[18]
  Bacterial Biotransformation: Compound metabolized
[19]
  Bacterial Biotransformation: Compound metabolized
[20]
  Bacterial Biotransformation: Compound NOT metabolized

## COc1ccccc1OCCNCC(O)COc1cccc2[nH]c3ccccc3c12 (stereo not given) [CARVEDILOL]
[1]
  Bacterial Biotransformation: Compound NOT metabolized
[2]
  Bacterial Biotransformation: Compound NOT metabolized
[3]
  Bacterial Biotransformation: Compound metabolized
[4]
  Bacterial Biotransformation: Compound metabolized
[5]
  Bacterial Biotransformation: Compound metabolized
[6]
  Bacterial Biotransformation: Compound NOT metabolized
[7]
  Bacterial Biotransformation: Compound metabolized
[8]
  Bacterial Biotransformation: Compound NOT metabolized
[9]
  Bacterial Biotransformation: Compound metabolized
[10]
  Bacterial Biotransformation: Compound metabolized
[11]
  Bacterial Biotransformation: Compound metabolized
[12]
  Bacterial Biotransformation: Compound NOT metabolized
[13]
  Bacterial Biotransformation: Compound NOT metabolized
[14]
  Bacterial Biotransformation: Compound metabolized
[15]
  Bacterial Biotransformation: Compound NOT metabolized
[16]
  Bacterial Biotransformation: Compound NOT metabolized
[17]
  Bacterial Biotransformation: Compound NOT metabolized
[18]
  Bacterial Biotransformation: Compound metabolized
[19]
  Bacterial Biotransformation: Compound metabolized
[20]
  Bacterial Biotransformation: Compound NOT metabolized
